Experimental data from patent publication US8334316B2, “Substituted organosulfur compounds and methods of using thereof” (ACEA Biosciences, Inc., priority 2004, dated 2012).
Where “and” joins values, the source holds several entries; their conditions need not be identical. Equal entries are not always repeated.

Tests used:
[1] = tested on: mouse Lewis lung cancer; experiment: In vivo antitumor efficacy, mouse Lewis lung cancer model (subcutaneously transplanted), Example 1
Method: Test controls. For the negative control, two groups were set up: the solvent only control group and normal saline control group. […] In the normal saline group, each mouse was administered with 0.5 ml of normal saline, once per day and for 7 or 10 consecutive days. For the positive control group, the anticancer compound, cyclophosphamide (CTX) was administered intraperitoneally at 30 mg/kg, once per day and for 7 or 10 consecutive days.
In the mouse Lewis lung cancer model, 200 mg of DBTS was dissolved in 5 mL castor oil (in polyoxyethlated version). […] The intravenous injection speed was about 0.5 mL/0.5 min.
The dosages and administration of test compounds are within the knowledge of those commonly skilled in pharmacology. For example, the test compounds may be administered by intravenous injection with a test compound solution twice per day and for 7 consecutive days. Alternatively, the test compounds may be administered by intravenous injection with a test compound solution once per day and for 10 consecutive days.
0.2 mL of the tumor cell suspension (between 4 and 8 million tumor cells) was then transplanted back into an experimental mouse by subcutaneous injection. […] Each removed solid tumor was weighted, and the tumor inhibition rate in the DBTS-treated groups and in the CTX-treated group was calculated according to the formula: Tumor inhibition rate %=(average weight of tumor in the negative control group−average weight of tumor in the compound treated group)/average weight of tumor in the negative control group×100 (2)
For the mouse Lewis lung cancer model, the Lewis lung cancer cells were subcutaneously transplanted at approximately 5 million cells per mouse. After 24 hours of the transplantation, each mouse in the test group was administered intravenously with dibenzyl trisulfide at 50, 25, or 12.5 mg/kg per day and for 10 consecutive days. For the positive control group, each mouse was administered with CTX at […] intraperitoneally per day and for 10 consecutive days. For the negative control group, each mouse was administered intravenously either with normal saline, or with the solvent for dibenzyl trisulfide at the same concentration as that in the test group per day and for consecutive 10 days. For each group, 10 mice were used.

[2] = tested on: mouse Lewis lung cancer; experiment: In vivo antitumor efficacy, mouse Lewis lung cancer model, Example 2 (DBTS, CTX, Taxol reference)
[3] = 12.5 mg/kg/d iv x10 qd, vs 5% solvent control
[4] = 12.5 mg/kg/d iv x10 qd, vs normal saline control
[5] = 25 mg/kg/d iv x10 qd, vs 5% solvent control
[6] = 25 mg/kg/d iv x10 qd, vs normal saline control
[7] = 50 mg/kg/d iv x10 qd, vs 5% solvent control
[8] = 50 mg/kg/d iv x10 qd, vs normal saline control

c1ccc(CSSSCc2ccccc2)cc1 [DBTS, Dibenzyl trisulfide]
Inhibition rate (%) [1, 3]: 37.38% and 37.28% | Inhibition rate (%) [1, 4]: 45.21% | Inhibition rate (%) [1, 5]: 44.30% | Inhibition rate (%) [1, 6]: 51.34% | Inhibition rate (%) [1, 7]: 62.28% | Inhibition rate (%) [1, 8]: 67.05% and 65% | Tumor weight ([2]; 12.5 mg/kg/d iv x10 qd): 1.59 ± 0.16 g | tumor inhibition rate % [2, 3]: 35.10% | tumor inhibition rate % [2, 4]: 43.10% and 43.01% | Tumor weight ([2]; 25 mg/kg/d iv x10 qd): 1.35 ± 0.10 g | tumor inhibition rate % [2, 5]: 46.94% | tumor inhibition rate % [2, 6]: 51.61% | Tumor weight ([2]; 50 mg/kg/d iv x10 qd): 0.955 ± 0.20 g | tumor inhibition rate % [2, 7]: 61.02% | tumor inhibition rate % [2, 8]: 65.77% and 65%
